Laboratory results from US4666931A, “Benzofuran derivatives useful in treating diabetic complications” (Kaken Pharmaceutical Co., Ltd., priority 1984, dated 1987).
Read-outs that look alike come from different tables or passages of the source.

Assays:
[1] = system: aggregation of the washed rabbit platelet by thrombin; assay: Platelet aggregation inhibiting activity (washed rabbit platelet, thrombin); format: cell-based; conditions: for IC50: Oryctolagus cuniculus, Platelet; for platelet aggregation inhibiting activity relative to Persantin: compared with Persantin (dipyridamole)
Procedure: Blood samples were collected from the auricular blood vessel of rabbits (white local breed), and washed platelets were prepared therefrom by the method of Baenziger et al. (N. L. Baenziger and P. W. Majerus, Methods Enzymol., 31, 149 to 155 (1974). The platelets were suspended in a 15 mM Tris-hydrochloric acid buffer with a final concentration of 6×10^8 cells/ml (Tris: tris(hydroxymethyl)aminomethane). Each test compound of the compound Nos. 5, 8, 9, 11, 23, 29, 30 and 33 and Persantin® was added thereto and incubation was carried out at 37° C. for 2 minutes. Then the platelets were stimulated by addition of thrombin (0.2 unit/ml of final concentration; made by Mochida Pharmaceutical Co.) and the aggregation inhibiting activity was estimated by the observation of the aggregation reaction using an aggregometer (made by Briston Co.).
The results are shown in Table 3 in terms of IC50 (50% inhibiton concentration in M).

[2] = Acute toxicity test in mice (oral); conditions: mouse, in vivo, po
Procedure: (§1) Acute toxicity test in mice was carried out on the benzofuran derivatives of the compound Nos. 3, 5, 9, 21, 23, 26, 29 and 34.

mice = assay: Acute toxicity test in mice (oral); conditions: mice, oral; for death up to the dose of 3 g/kg body weight: up to 3 g/kg
Procedure: as §1

[3] = molecular target: T1, aldose reductase from rat lens (Rattus norvegicus, UniProt P07943); assay: Aldose reductase inhibiting activity; format: biochemical; conditions: DL-glyceraldehyde substrate, Table 2, read-out: IC50 (50% inhibition concentration in M)
T1 construct: the supernatant was prepared as the crude enzyme solution; from tissue; host or cells: lens of male Wistar rats, 10,000 g supernatant of homogenate (crude enzyme)
Procedure: Wistar male rats were sacrificed by decapitation and the lenses were taken out to be homogenized with a 0.1M phosphate buffer [pH 6.8, containing 1 mM of mercaptoethanol and 1 mM of nicotinamide-adenine dinucleotide phosphate (NADP)]. The homogenate was then centrifuged at 10,000 g for 15 minutes and the supernatant was prepared as the crude enzyme solution.

[4] = system: production of malondialdehyde from arachidonic acid by rabbit platelets; assay: Arachidonic acid metabolism inhibiting activity: production of malondialdehyde from arachidonic acid by rabbit platelets; format: cell-based; conditions: Oryctolagus cuniculus, Platelet, arachidonic acid 0.2 mM, read-out: concentration showing 50% inhibition against the production of malondialdehyde from arachidonic acid
Procedure: Washed rabbit platelets prepared as in the platelet aggregation inhibiting activity test were suspended in 15 mM Tris-hydrochloric acid buffer with a final concentration of 1×10^8 cell/ml, to which each test compound of the compound Nos. 8, 13, 14, 19, 20, 23, 29, 30 and 33 were added and the resultant was preincubated at 37° C. for five minutes. Then arachidonic acid (a final concentration: 0.2 mM, made by Sigma Chemical Co.) was added thereto and the mixture was preincubated for 1 minute. An amount of the produced malondialdehyde was measured according to the thiobarbiturates method (Ed. Aoki and Shibata, Ketsuekigaku Kenkyukensaho, P 441 to 447).

cyclooxygenase = assay: Cyclooxygenase inhibition: malondialdehyde production from arachidonic acid, 9000 G supernatant of lung homogenate from guinea pig; format: biochemical; conditions: guinea pig lung 9000 G supernatant, compared with aspirin
Procedure: Lung from guinea pig was washed with physiological saline and homogenized in 0.1M Tris-hydrochloric acid buffer to prepare a supernatant by cooled centrifugation (9000 G).
The inhibiting activity against cyclooxygenase was measured by using the 9000 G supernatant as a source of cyclooxygenase in the presence of 1 mM epinephiline.

[5] = range for nine compounds, read-out: concentration showing 50% inhibition against the aggregation of the washed rabbit platelet by thrombin
[6] = washed rabbit platelets, thrombin 0.2 unit/ml, 37° C., Table 3, read-out: IC50 (50% inhibition concentration in M)

In the case of `CCCCCOc1ccc(S(=O)(=O)NCC(=O)O)c2cc(C(C)=O)oc12` [Compound 5, 2-acetyl-4-(N-carboxymethylsulfamoyl)-7-n-pentyloxybenzofuran], the IC50 [1, 5] is reported as 20 to 200 µM, the “platelet aggregation inhibiting activity relative to Persantin” value [1] is reported as “equivalent to or more than” and the LD50 at 336 h [2] is reported as > 3000 mg/kg. For the same molecule, the “death up to the dose of 3 g/kg body weight” value (mice) was “no death” and the IC50 [3] was 0.05 µM.
With `CCCCOc1ccc(S(=O)(=O)N(C)CC(=O)O)c2cc(C(C)=O)oc12` [Compound 9, 2-acetyl-4-(N-methyl-N-carboxymethylsulfamoyl)-7-n-butoxybenzofuran] the IC50 [1, 5] was 20 to 200 µM, the IC50 [1, 6] was 600 µM and the “platelet aggregation inhibiting activity relative to Persantin” value [1] was “equivalent to or more than”. The LD50 at 336 h [2] was > 3000 mg/kg, the “death up to the dose of 3 g/kg body weight” value (mice) was “no death” and the IC50 [3] was 1 µM.
In the case of `CC(=O)c1cc2c(S(=O)(=O)NCC(=O)O)ccc(OCc3ccc([N+](=O)[O-])cc3)c2o1` [Compound 23, 2-acetyl-4-(N-carboxymethylsulfamoyl)-7-p-nitrobenzyloxybenzofuran], the IC50 [1, 5] is reported as 20 to 200 µM, the IC50 [1, 6] is reported as 80 µM and the “platelet aggregation inhibiting activity relative to Persantin” value [1] is reported as “equivalent to or more than”. The LD50 at 336 h [2] was > 2000 mg/kg, the “death up to 2 g/kg body weight” value (mice) was “no death” and the IC50 [4] was 10 to 100 µM. For the same molecule, the “inhibition against malondialdehyde production relative to aspirin” value (cyclooxygenase) was “equivalent to or more than” and the IC50 [3] was 0.05 µM.
With `CC(=O)COc1ccc(S(=O)(=O)NCC(=O)O)c2cc(C(C)=O)oc12` [Compound 26, 2-acetyl-4-(N-carboxymethylsulfamoyl)-7-acetonyloxybenzofuran] the LD50 at 336 h [2] was > 2000 mg/kg, the “death up to 2 g/kg body weight” value (mice) was “no death” and the IC50 [3] was 0.2 µM.
With `CC(=O)c1cc2c(S(=O)(=O)NCC(=O)O)ccc(OCc3ccccc3)c2o1` [Compound 29, 2-acetyl-4-(N-carboxymethylsulfamoyl)-7-benzyloxybenzofuran] the IC50 [1, 5] was 20 to 200 µM, the IC50 [1, 6] was 35 µM and the “platelet aggregation inhibiting activity relative to Persantin” value [1] was “equivalent to or more than”. For the same molecule, the LD50 at 336 h [2] was > 2000 mg/kg, the “death up to 2 g/kg body weight” value (mice) was “no death” and the IC50 [4] was 10 to 100 µM. The “inhibition against malondialdehyde production relative to aspirin” value (cyclooxygenase) was “equivalent to or more than” and the IC50 [3] was 0.05 µM.
With `CC(=O)c1cc2c(S(=O)(=O)N(CC(=O)O)Cc3ccc(Cl)cc3)ccc(OCc3ccc(Cl)cc3)c2o1` [Compound 34, 2-acetyl-4-(N-p-chlorobenzyl-N-carboxymethylsulfamoyl)-7-p-chlorobenzyloxybenzofuran] the LD50 at 336 h [2] was > 2000 mg/kg, the “death up to 2 g/kg body weight” value (mice) was “no death” and the IC50 [3] was 0.8 µM.
